Patent US9073874B2, “Cyclic N,N′-diarylthioureas and N,N′-diarylureas-androgen receptor antagonists, anticancer agent, method for preparation and use thereof” (priority 2010, dated 2015)

Columns and labels:
a2 (non-selective) = assay: competitive radioligand binding assay, a2 (non-selective) (antagonist radioligand); conditions: 10 μM
β2 (h) = β2 (h) (Homo sapiens, UniProt P07550); assay: competitive radioligand binding assay, β2 (h) (agonist radioligand)
AT2 (h) = AT2 (h) (Homo sapiens, UniProt P50052); assay: competitive radioligand binding assay, AT2 (h) (agonist radioligand)
AT2 (h), sequence (P50052 whole entry): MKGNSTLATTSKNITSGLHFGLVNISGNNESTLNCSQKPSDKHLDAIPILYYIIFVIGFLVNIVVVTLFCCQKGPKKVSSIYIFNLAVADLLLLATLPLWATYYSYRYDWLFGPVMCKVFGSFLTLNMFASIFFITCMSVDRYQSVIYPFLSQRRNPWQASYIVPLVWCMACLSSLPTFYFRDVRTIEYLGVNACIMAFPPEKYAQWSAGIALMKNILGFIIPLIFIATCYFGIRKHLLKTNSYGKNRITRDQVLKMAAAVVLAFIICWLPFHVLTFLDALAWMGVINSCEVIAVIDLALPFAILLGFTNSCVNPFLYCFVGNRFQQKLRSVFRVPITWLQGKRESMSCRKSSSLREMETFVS

CRF1 (h) = CRF1 (h) (Homo sapiens, UniProt P34998); assay: competitive radioligand binding assay, CRF1 (h) (agonist radioligand)
CRF1 (h), sequence (P34998 24-415): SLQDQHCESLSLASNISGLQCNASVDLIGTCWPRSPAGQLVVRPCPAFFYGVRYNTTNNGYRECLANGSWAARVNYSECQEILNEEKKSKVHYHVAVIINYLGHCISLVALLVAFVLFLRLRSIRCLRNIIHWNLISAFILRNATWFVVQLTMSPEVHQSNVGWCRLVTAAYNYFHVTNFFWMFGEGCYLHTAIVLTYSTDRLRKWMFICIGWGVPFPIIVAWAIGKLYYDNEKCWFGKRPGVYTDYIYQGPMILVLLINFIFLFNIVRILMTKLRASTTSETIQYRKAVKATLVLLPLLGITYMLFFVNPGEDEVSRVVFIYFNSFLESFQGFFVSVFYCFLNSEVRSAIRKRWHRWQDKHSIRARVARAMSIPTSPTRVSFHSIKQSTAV

D3 (h) = D3 (h) (Homo sapiens, UniProt P35462); assay: competitive radioligand binding assay, D3 (h) (antagonist radioligand)
D3 (h), sequence (P35462 whole entry): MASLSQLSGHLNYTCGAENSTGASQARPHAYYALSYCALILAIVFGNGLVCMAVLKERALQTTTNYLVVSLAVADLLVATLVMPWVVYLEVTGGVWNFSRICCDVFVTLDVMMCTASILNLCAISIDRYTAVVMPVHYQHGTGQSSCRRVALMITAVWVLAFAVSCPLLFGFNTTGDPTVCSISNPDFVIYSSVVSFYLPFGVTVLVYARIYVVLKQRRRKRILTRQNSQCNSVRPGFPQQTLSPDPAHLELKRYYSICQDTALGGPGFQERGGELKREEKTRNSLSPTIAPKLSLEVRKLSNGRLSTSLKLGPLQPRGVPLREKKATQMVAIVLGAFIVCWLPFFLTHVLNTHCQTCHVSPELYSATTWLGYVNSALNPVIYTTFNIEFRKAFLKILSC

[1] = system: T1, GABA (non-selective) receptors; assay type: binding
T1 construct: other: 10 μM; GABA (non-selective) (agonist radioligand); activity towards GABA (non-selective) receptors (in words)

NMDA = assay: competitive radioligand binding assay, NMDA (antagonist radioligand); conditions: 10 μM
H1 (h) = H1 (h) (Homo sapiens, UniProt P35367); assay: competitive radioligand binding assay, H1 (h) (antagonist radioligand)
H1 (h), sequence (P35367 whole entry): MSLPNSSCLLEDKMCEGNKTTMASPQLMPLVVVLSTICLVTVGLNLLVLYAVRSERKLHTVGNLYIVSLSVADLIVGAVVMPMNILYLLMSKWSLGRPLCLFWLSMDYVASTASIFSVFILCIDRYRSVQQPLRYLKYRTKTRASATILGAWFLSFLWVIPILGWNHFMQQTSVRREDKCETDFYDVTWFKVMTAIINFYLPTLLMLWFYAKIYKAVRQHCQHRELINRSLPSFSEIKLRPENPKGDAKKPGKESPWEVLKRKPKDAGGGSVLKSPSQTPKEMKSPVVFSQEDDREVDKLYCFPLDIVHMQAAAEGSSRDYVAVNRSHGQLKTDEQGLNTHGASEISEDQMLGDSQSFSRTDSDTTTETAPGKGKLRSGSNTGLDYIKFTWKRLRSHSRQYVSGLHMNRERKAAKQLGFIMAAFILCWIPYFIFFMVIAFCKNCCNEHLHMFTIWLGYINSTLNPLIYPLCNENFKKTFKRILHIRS

H3 (h) = H3 (h) (Homo sapiens, UniProt Q9Y5N1); assay: competitive radioligand binding assay, H3 (h) (agonist radioligand)
H3 (h), sequence (Q9Y5N1 whole entry): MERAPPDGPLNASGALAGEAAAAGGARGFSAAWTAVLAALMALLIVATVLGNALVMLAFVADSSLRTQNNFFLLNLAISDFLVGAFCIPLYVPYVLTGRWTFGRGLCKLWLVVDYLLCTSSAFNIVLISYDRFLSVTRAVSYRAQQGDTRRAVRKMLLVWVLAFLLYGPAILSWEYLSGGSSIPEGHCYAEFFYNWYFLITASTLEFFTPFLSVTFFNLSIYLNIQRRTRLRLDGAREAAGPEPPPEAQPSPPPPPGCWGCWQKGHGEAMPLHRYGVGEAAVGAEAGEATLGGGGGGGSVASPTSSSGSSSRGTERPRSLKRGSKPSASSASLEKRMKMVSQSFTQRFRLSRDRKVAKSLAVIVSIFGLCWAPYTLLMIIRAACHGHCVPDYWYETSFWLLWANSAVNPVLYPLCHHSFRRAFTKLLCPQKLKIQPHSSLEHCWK

I2 = assay: competitive radioligand binding assay, I2 (antagonist radioligand); conditions: 10 μM
M (non0selective) = assay: competitive radioligand binding assay, M (non0selective) (antagonist radioligand); conditions: 10 μM
5-HT (non-selective) = assay: competitive radioligand binding assay, 5-HT (non-selective) (agonist radioligand); conditions: 10 μM
[2] = system: sigma (non-selective) (h); assay: competitive radioligand binding assay, sigma (non-selective) (h) (agonist radioligand); set-up: species or system human; conditions: 10 μM
PR (h) = PR (h) (Homo sapiens, UniProt P06401); assay: competitive radioligand binding assay, PR (h) (agonist radioligand)
PR (h), sequence (P06401 whole entry): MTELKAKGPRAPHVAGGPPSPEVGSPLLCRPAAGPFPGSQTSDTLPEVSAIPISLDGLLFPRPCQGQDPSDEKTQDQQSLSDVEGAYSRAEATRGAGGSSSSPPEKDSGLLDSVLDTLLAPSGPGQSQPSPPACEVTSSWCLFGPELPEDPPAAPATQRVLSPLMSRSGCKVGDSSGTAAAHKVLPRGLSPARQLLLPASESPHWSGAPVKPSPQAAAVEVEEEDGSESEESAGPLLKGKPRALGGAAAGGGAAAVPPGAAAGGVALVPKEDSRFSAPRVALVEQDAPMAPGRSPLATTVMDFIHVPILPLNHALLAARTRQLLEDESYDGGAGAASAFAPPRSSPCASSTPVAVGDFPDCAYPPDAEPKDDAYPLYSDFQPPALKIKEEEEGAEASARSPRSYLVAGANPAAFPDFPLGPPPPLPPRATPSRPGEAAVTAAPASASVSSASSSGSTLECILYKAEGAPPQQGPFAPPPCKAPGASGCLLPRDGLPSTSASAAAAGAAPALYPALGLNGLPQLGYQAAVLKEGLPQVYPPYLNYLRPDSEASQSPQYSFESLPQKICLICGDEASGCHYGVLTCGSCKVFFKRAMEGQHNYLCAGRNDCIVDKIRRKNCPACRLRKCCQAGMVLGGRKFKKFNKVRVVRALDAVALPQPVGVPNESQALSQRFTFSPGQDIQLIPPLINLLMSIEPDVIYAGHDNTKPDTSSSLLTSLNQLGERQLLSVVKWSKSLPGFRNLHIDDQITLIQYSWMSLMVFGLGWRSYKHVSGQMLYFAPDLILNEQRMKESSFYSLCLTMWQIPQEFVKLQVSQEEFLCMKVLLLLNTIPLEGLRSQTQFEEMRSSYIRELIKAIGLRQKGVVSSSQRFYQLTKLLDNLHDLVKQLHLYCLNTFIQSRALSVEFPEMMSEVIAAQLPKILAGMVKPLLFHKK

KATP channel = assay: competitive radioligand binding assay, KATP channel (antagonist radioligand); conditions: 10 μM
SKCa channel = assay: competitive radioligand binding assay, SKCa channel (antagonist radioligand); conditions: 10 μM
Na+ channel (site 2) = assay: competitive radioligand binding assay, Na+ channel (site 2) (antagonist radioligand); conditions: 10 μM
[3] = Maximum tolerated dose, peroral once a day for 5 days in CD1 male mice; assay type: in vivo
Procedure: The maximum tolerated doses (MTD) of novel antagonists (R)-1 and their analog Ia were determined in experiments on CD1 male mice at peroral administration once a day for 5 days in doses of 10, 30, and 100 mg/kg. The compound was dissolved in sterile water with addition of Tween 80. Sterile water with Tween 80 was given to control animals (Placebo group). Animals' body weight and mortality rate were estimated. Statistical comparison of groups was carried out according to a non-parametric ANOVA test using Statistica software.

LnCAP-Z2 tumors = assay: Prostate cancer xenograft model, SCID male mice bearing LnCAP-Z2 tumors; assay type: in vivo; conditions: for antitumor efficacy (in words): oral
Procedure: SCID male mice bearing LnCAP-Z2 tumors (mean volume˜160-190 mm^3) were treated daily by oral gavage with vehicle or drugs for 21 days. Individual tumor volume change by the end of the study. Percentage of change in individual tumor volumes as compared to the start of treatment.
FIG. 6. […] SCID male mice bearing LnCAP-Z2 tumors (mean volume˜160-190 mm^3) treated daily by oral gavage with vehicle or drugs for 21 days. Individual tumor volume change by the end of the study. Percentage of change in individual tumor volumes compared to the start of treatment.
FIG. 7. […] SCID male mice bearing LnCAP-Z2 tumors (mean volume˜160-190 mm^3) treated daily by oral gavage with vehicle or drugs for 21 days. (A)—Tumor weight by the end of the study. Mean±SEM are presented. […] (B)—PSA expression by the end of the study. Plasma samples were collected 24 hours after the last drug administration. Mean±SEM are presented.
The antitumor efficacy of (R)-1 was tested in a xenograft model of prostate cancer (FIGS. 6 and 7). Male immunodeficient mice harboring LnCAP-Z2 tumors were treated orally for 21 days with either vehicle or (R)-1 at 20 and 50 mg/kg once daily and at 20 mg/kg twice daily. […] Twenty-four hours after last treatment, blood samples were collected from all animals and used for measuring PSA expression and drug concentration. In addition, the concentration of drugs and Ki67 expression were measured in tumor samples.

β2 (h), sequence (P07550 whole entry): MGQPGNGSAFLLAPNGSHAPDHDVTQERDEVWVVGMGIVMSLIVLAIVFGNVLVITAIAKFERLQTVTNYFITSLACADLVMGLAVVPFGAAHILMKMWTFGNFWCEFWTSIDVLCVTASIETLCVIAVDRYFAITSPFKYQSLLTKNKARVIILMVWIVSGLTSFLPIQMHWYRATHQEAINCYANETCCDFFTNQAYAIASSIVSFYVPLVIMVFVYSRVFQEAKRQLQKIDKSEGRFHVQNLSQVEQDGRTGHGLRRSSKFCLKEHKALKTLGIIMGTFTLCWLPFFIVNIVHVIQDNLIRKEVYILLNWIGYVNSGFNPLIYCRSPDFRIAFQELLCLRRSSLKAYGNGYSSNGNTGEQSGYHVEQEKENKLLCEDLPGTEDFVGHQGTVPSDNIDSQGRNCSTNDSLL

CNC(=O)c1ccc(N2C(=S)N(c3ccc(C#N)c(C(F)(F)F)c3)C(=O)[C@]23CCOC3)cc1F [(R)-1, 4-[(R)-3-(4-cyano-3-trifluoromethyl-phenyl)-4-oxo-2-thioxo-7-oxa-1,3-diaza-spiro[4.4]non-1-yl]-2-fluoro-N-methyl-benzamide]
% Inhibition (a2 (non-selective)): −3.7% | inhibition at 10 µM (β2 (h)): -8% | inhibition at 10 µM (AT2 (h)): -6.2% | inhibition at 10 µM (CRF1 (h)): -0.1% | inhibition at 10 µM (D3 (h)): -4.8% | % Inhibition ([1]; 10 μM, GABA (non-selective) (agonist radioligand)): 7.1% | activity towards GABA (non-selective) receptors (in words) ([1]; Table 1, Target 24): practically inactive | % Inhibition (NMDA): 2.0% | inhibition at 10 µM (H1 (h)): 0.7% | inhibition at 10 µM (H3 (h)): -13% | % Inhibition (I2): 10.1% | % Inhibition (M (non0selective)): −8.9% | % Inhibition (5-HT (non-selective)): −8.2% | % Inhibition [2]: 9.8% | inhibition at 10 µM (PR (h)): 66.6% | % Inhibition (KATP channel): −0.8% | % Inhibition (SKCa channel): −4.8% | % Inhibition (Na+ channel (site 2)): −11.6% | MTD at 5 days ([3]; CD1, mouse, in vivo, oral, male CD-1 mice, peroral once a day for 5 days): > 100 mg/kg | body weight versus control animals (Placebo group) ([3]; CD1 male mice, peroral, 100 mg/kg): no statistical significance was observed | mortality ([3]; CD1 male mice, peroral, doses below 100 mg/kg (10 and 30 mg/kg)): did not lead to death | toxicity compared with the (Ia) antagonist ([3]; male CD-1 mice, from MTD): more than three times less toxic | tumors regressed (LnCAP-Z2 tumors; 20 mg/kg twice daily, oral gavage, 21 days): 4 of 8 | effect on individual tumors (in words) (LnCAP-Z2 tumors; analysis of individual tumors, 21 days oral): stimulate tumor regression | antitumor efficacy (in words) (LnCAP-Z2 tumors; once daily at 20 or 50 mg/kg, 21 days): comparable with Ia administered once daily at 10 mg/kg | antitumor efficacy (in words) (LnCAP-Z2 tumors; twice daily at 20 mg/kg, 21 days): highest antitumor efficacy
